Tests used:
[1] = Static R value for clinical TrDDI (FDA guidance); design: species or system human; details: eltrombopag victim, pitavastatin perpetrator; versus FDA cut‐offs
[2] = Semimechanistic PBPK model simulation in simulated healthy volunteers; design: species or system human; details: PBPK model value
From the text: Uptake is inhibited by the opposing drug in X 3 via the respective uptake concentration at half of the maximum uptake velocity (K m.up.X) shown as the inhibition constant (K I.up). Passive movement of drug into and out of the liver is through clearances P dif.X and P def.X, respectively. Both drugs are cleared through biliary excretion (CLbi.X) into the gallbladder (X 5), and into X 2 where they can be reabsorbed.
The micro‐rate constants for transporter‐mediated uptake and passive uptake were scaled to macro‐rate constants (see Table 2 ) and then empirically scaled up to the human body (83 kg, healthy adult; ^23 see Table 2 ).
The ODE PBPK model (see Figure 1 for schematic and Supplemental Material for the set of ODEs) was developed using desolve ^27 in R‐studio (v1.1.463, R‐Studio Inc., Boston, MA) running R‐project version 3.6.0 ^28 and was similar to that used for eltrombopag and rosuvastatin. ^5 All figures in this article were generated either within Inkscape (0.93, Inkscape.org, Boston, MA) or cowplot, ggplot2, ^29 , ^30 extrafont, ^31 and Cairo. ^32

[3] = Fraction unbound in hepatocytes, Rapid Equilibrium Dialysis (RED) device; type: in vitro ADME; details: human, heat inactivated hepatocytes, RED device
Description: Fraction Unbound in Hepatocytes. The estimation of the fraction unbound in hepatocytes at equilibrium can be obtained using multiple techniques: heat inactivated hepatocytes (3); linear regression obtained using the logD7.4 (4); parameter estimation (1, 3, 5, 6) or as separate binding rate constants determined experimentally (7). […] The RED device works with low volumes across a medium chamber (500 µL, white) and incubation chamber containing the hepatocytes (300 µL, red), and as such has been reported to even out the non-specific binding (NSB) between the membrane and wells, thereby improving recovery (8). The free fraction in the incubation (fu.inc) is calculated as:
fu.inc= [medium chamber] Whiteincubation chamber(Red) . (Eq.S1)
The amount of non-specific binding (NSB) to the labware is important to understand the recovery from the RED device experiment to evaluate the reliability of fu.inc: […]

[4] = cited from earlier work

CC1=NN(c2ccc(C)c(C)c2)C(=O)/C1=N\Nc1cccc(-c2cccc(C(=O)O)c2)c1O [eltrombopag, Eltrombopag]
R value, static model [1]: below the cut‐offs
CLmet.X, metabolic clearance ([2]; Eqs. 10 and 11): 6.8 mL/min/liver
CLbi.X, biliary clearance ([2]; Eqs. 12 and 13): 13 mL/min/liver
fraction unbound ([3]; overnight, pitavastatin 0.3, 10 and 100 nmol/ml, eltrombopag 30 nmol/ml, read-out: f u.inc, fraction unbound in the incubation): 0.04
recovery ([3]; read-out: analytical recovery): 10%
binding of eltrombopag to plasma proteins [4]: 99.8%
f u.pl.E, eltrombopag fraction unbound in the plasma [4]: 0.002
blood:plasma ratio ([4]; eltrombopag): 0.78

Reference: publication PMC7179958 (CPT: Pharmacometrics & Systems Pharmacology, 2020)
